Laboratory results: PMC4704819, “Honey Bee Allatostatins Target Galanin/Somatostatin-Like Receptors and Modulate Learning: A Conserved Function?” (PLoS ONE, 2016)
Entries after “also recorded” stand apart in the source; their conditions may differ. Where a SMILES comes first, the peptide text is derived from it. Bridges are numbered along the chain shown (N, C = ends).

Assays:
[1] = tested on: honey bees (Apis mellifera); assay: Appetitive olfactory learning (conditioning of proboscis extension reflex); type: in vivo; conditions: for change of conditioned responses in last conditioning trial vs vehicle (GLM coefficient ± standard error): ~200 nl into head haemolymph 1 h before conditioning; for effect on olfactory learning performance, in words: injected into the head before conditioning, range of concentrations, vs vehicle-injected controls, Fig 9
Protocol: For behavioral experiments, bees departing from the hive (mostly foragers) were chosen as they usually show good motivation and learning ability. Each cold-anesthetized animal was introduced into a metal holder and fixed to it in order to restrain all movements of the appendages apart from those of the antennae and proboscis. Each bee was then fed with 5 μl of a sucrose solution (50% w/w in water), and its median ocellus was removed to allow injection of allatostatin into the head capsule. All bees were then placed in a dark, warm (25°C) and humidified compartment for 3 hours, before the experiments began.
The vehicle for allatostatins was a saline solution made of PBS containing the protease blocker, 1 mM PMSF (prepared from a 30mM stock solution in 100% ethanol, final concentration of ethanol 3.3%).
The allatostatins were injected into the head haemolymph after penetrating the median ocellus, either 1 hour before olfactory conditioning or sucrose responsiveness assessment, or immediately after olfactory conditioning. All injections were performed under a binocular microscope. A micromanipulator-controlled Hamilton syringe (Nanofil, equipped with a NF33BV2 needle, WPI) was used to inject approximately 200 nl of peptide solution. To make sure that the solution was properly injected, it was pushed out of the syringe so that a drop was visible and then the drop was put in contact with the haemolymph where it was quickly absorbed thanks to the respiratory movements of the bee. Any bee with excessive bleeding was discarded.
Associative conditioning of the proboscis extension reflex was used to monitor effects of allatostatin treatment on appetitive olfactory learning performance. Olfactory stimuli were prepared shortly before conditioning by inserting a small piece of filter paper soaked with 4μl of pure odorant (from Sigma-Aldrich, Lyon, France) in one of the 8 channels of a custom-made, computer-driven olfactometer (P. Arrufat, Research Center on Animal Cognition, Toulouse, France). Immediately before conditioning, the integrity of the proboscis extension reflex was checked by touching both antennae with a 50% (w/w in water) sucrose solution. Olfactory conditioning of this reflexive response was carried out following a standard protocol consisting of three paired presentations of the odor (conditioned stimulus, CS) with 50% sucrose (the unconditioned stimulus, US) separated by a 10-min interval. Each trial included a familiarization phase in which the bee was placed in the conditioning set up for 13 s before forward pairing of the CS-US. The CS (1-nonanol) was delivered to the bee through an airflow for 4 s, and the US (sucrose solution) for 3 s, with a 1 s CS-US overlap. The US was presented by gently touching the antennae to elicit the PER; as soon as the bee extended its proboscis it was allowed to lick the toothpick. This sequence was controlled by the computer-driven olfactometer.
Functional data (receptor-mediated calcium, cAMP signals and binding) were plotted and regression curves were fitted using the GraphPad Prism software (San Diego, CA). The learning data were analyzed with generalized linear effects modeling (GLM) for binomial data using the R package lme4 [67]. Response levels recorded in the last conditioning trial were used to assess the effect of treatment on learning. For 1-hour memory and generalization tests, effects of allatostatin treatment were compared for each odor tested. Generalized linear mixed effects modeling (GLMM) was also used to analyze responsiveness to sucrose, with concentration and treatment as fixed factors and the bee identity and solution presented (either sucrose or water) as random factors. […] All statistics were generated in R [68].

Apime-ASTA-R = molecular target: T1, Apime-ASTA-R (Apis mellifera, UniProt A0A7M7ILT1); assay: Intracellular calcium measurement, HEK293 cells expressing Apime-ASTA-R with Gαqi9 chimeric G protein; type: cell-based; conditions: HEK293 with Gαqi9, Fig 4D
T1 sequence (A0A7M7ILT1 1-361): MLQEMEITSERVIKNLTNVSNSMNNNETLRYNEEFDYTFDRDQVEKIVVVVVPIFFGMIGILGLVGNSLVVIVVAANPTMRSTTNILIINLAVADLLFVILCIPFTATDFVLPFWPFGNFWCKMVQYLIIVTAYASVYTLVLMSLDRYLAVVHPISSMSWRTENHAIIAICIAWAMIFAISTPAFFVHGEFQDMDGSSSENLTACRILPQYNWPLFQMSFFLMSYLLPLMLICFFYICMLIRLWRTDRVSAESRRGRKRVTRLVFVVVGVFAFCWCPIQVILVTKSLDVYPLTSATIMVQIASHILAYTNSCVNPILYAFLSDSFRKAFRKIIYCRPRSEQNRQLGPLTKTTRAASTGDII
Protocol: This vector contains an ATG initiation codon in phase with a mammalian signal peptide sequence of metabotropic glutamate receptor 5 to address receptor protein to the cell membrane, with a hemagglutinin sequence (TAG HA), and MluI and HindIII restriction sites used for cloning. The coding regions of the genes of interest were PCR amplified from cDNA template. After extraction from whole brains, 1 μg of total RNA was reverse-transcribed with random primers. […] PCR reactions included: 30s at 98°C, then 30 cycles of 10s at 98°C, 30s at 60°C, 1 min at 72°C and finally, 5 minutes at 72°C. Cloning required several amplification and digestion steps to insert the full cDNA sequences in the vector.
In all cases, 2 μg of plasmid DNA encoding the Gαqi9 chimeric G protein was included to enable artificial coupling of the receptors to phospholipase C. Electroporation (250 V, 800 μF, Biorad GenePulser X-cell) was performed in a total volume of 300 μl of electroporation buffer (50 mM K2HPO4, 20 mM CH3COOK, 20 mM KOH, 26.5 mM MgSO4, pH 7.4). After electroporation, cells were resuspended in 10 ml of culture medium and split (100 μl/well) into polyornithine-coated (Sigma #P3655), black-walled, clear bottom 96-well plates (Greiner bio-one #655090) and grown for a further 48 h prior to analyzing receptor properties. All products used for cell culture were purchased from Invitrogen Life Technologies.
Cells were washed with freshly prepared 20 mM Hepes, 1 mM MgSO4, 3.3 mM Na2CO3, 1.3 mM CaCl2, 0.1% BSA, 2.5 mM probenecid in 1X Hank's balanced salt solution (Gibco #14185), pH7.4 buffer and loaded with 1 μM Ca^2+-sensitive fluorescent dye Fluo-4 AM (Invitrogen # F14202) for 1 h at 37°C. Cells were washed once and incubated with 50 μl of buffer. A plate was prepared with the various concentrations of peptides to be tested, and 50 μl of 2X concentrated-drug solution was added in each well after 20 s of recording. Fluorescence signals (excitation 485 nm, emission 525 nm) were measured by using the fluorescence microplate reader Flexstation (Molecular Devices) at sampling intervals of 1.5 s for 60 s. All represented data correspond to means ± standard deviation (SD) from experiments performed in triplicate.
This method allows detecting ligand-induced activation of the receptor by measuring the release of intracellular calcium.

[2] = 10^-6M, ASTA p<0.01, ASTC p<0.05, ASTCC p<0.001

Row | Compound | change of conditioned responses in last conditioning trial vs vehicle (GLM coefficient ± standard error) ([1]; 10^-3M, ASTCC p<0.05) | change of conditioned responses in last conditioning trial vs vehicle (GLM coefficient ± standard error) ([1]; 10^-4M, ASTA p<0.01, ASTCC p<0.01) | change of conditioned responses in last conditioning trial vs vehicle (GLM coefficient ± standard error) [1, 2] | change of conditioned responses in last conditioning trial vs vehicle (GLM coefficient ± standard error) ([1]; 10^-7M, ASTCC p<0.001) | effect on olfactory learning performance, in words [1] | effect on olfactory learning performance, in words ([1]; listed as ASTCC) | receptor activation (calcium), in words (Apime-ASTA-R) | change of conditioned responses in last conditioning trial vs vehicle (GLM coefficient ± standard error) ([1]; 10^-5M, ASTA p<0.05, ASTC p<0.05) | effect on olfactory learning performance, in words ([1]; listed as ASTC)
1 | CC(C)[C@@H]1NC(=O)[C@H](C)NC(=O)[C@H](CC(N)=O)NC(=O)[C@H](Cc2ccccc2)NC(=O)[C@H](Cc2ccc(O)cc2)NC(=O)[C@@H](NC(=O)[C@H](CCCNC(=N)N)NC(=O)[C@H](Cc2c[nH]c3ccccc23)NC(=O)[C@H](Cc2ccc(O)cc2)NC(=O)[C@@H](NC(=O)[C@H](CCCNC(=N)N)NC(=O)CNC(=O)[C@H](CCCCN)NC(=O)[C@H](C)NC(=O)[C@H](CCC(N)=O)NC(=O)CN)C(C)C)CSSC[C@@H](C(=O)N[C@@H](Cc2ccccc2)C(=O)O)NC(=O)[C@H]([C@@H](C)O)NC1=O [Apime-ASTCC] (H-GQAKGRVYWRCYFNAVTCF-OH; disulfide 11-18; N-terminus assumed) | -1.04±0.45 | -1.35±0.44 | -1.75±0.43 | -1.59±0.44 | the effects of each peptide were dose-dependent | apparent at much lower doses than effects of ASTC; also recorded: significant, dose-dependent (yet not linear) decrease in the percentage of bees that learned | not activated by either ASTC or ASTCC |  | 
2 | CC(C)[C@@H]1NC(=O)[C@H](C)NC(=O)[C@H](CC(N)=O)NC(=O)[C@H](Cc2ccccc2)NC(=O)[C@H](C)NC(=O)[C@@H](NC(=O)[C@H](CCC(N)=O)NC(=O)[C@H](CCCCN)NC(=O)[C@H](Cc2c[nH]c3ccccc23)NC(=O)[C@H](Cc2ccc(O)cc2)NC(=O)[C@@H](N)CO)CSSC[C@@H](C(=O)N[C@@H](Cc2ccccc2)C(N)=O)NC(=O)[C@H](CO)NC1=O [Apime-ASTC] (H-SYWKQCAFNAVSCF-NH2; disulfide 6-13; N-terminus assumed) |  |  | -0.91±0.41 |  | the effects of each peptide were dose-dependent |  | not activated by either ASTC or ASTCC | -0.84±0.42 | significant, dose-dependent (yet not linear) decrease in the percentage of bees that learned
